# Activity calls are given as the source filed them. No cut-off for these calls is given here.
# Assays:
# Pseudomonas aeruginosa = assay: Antibacterial activity against Pseudomonas aeruginosa PAO1 harboring wspF gene mutation assessed as reduction in bacterial growth at 512 uM by crystal violet staining assay relative to control; format: functional, organism-based
# c-di-GMP G-quadruplex [1] = assay: Induction of c-di-GMP G-quadruplex formation in Pseudomonas aeruginosa PAO1 harboring wspF gene mutation assessed as inhibition of biofilm formation incubated for 20 hrs by crystal violet staining assay relative to control; format: nucleic-acid assay
# c-di-GMP G-quadruplex [2] = assay: Induction of c-di-GMP G-quadruplex formation in Pseudomonas aeruginosa PAO1 harboring wspF gene mutation assessed as inhibition of biofilm formation at 1.25 uM incubated for 20 hrs by crystal violet staining assay relative to control; format: nucleic-acid assay
# Quadruplex DNA = assay: Induction of c-di-GMP G-quadruplex formation (unknown origin) measured at 300 nanometer by CD spectroscopy; format: nucleic-acid assay
SMILES,Activity (Pseudomonas aeruginosa),IC50 (c-di-GMP G-quadruplex [1]) [µM],inhibition (c-di-GMP G-quadruplex [2]) [%],Activity (Quadruplex DNA)
C[n+]1c(/C=C/c2ccc(Br)cc2)ccc2ccccc21,inactive,> 100,,
C[n+]1c(/C=C/c2ccc(O)c(F)c2)sc2ccccc21,inactive,> 100,-7.67,inactive
C[n+]1c(/C=C/c2cc(Br)c(O)c(Br)c2)ccc2ccccc21,inactive,,,inactive
C[n+]1c(/C=C/c2cccc(O)c2)ccc2ccccc21,inactive,6.81,29.4,Active
C[n+]1c(/C=C/c2ccc(O)c(F)c2)ccc2ccccc21,inactive,> 100,4.21,inactive
C[n+]1c(/C=C/c2ccc(N)cc2)sc2ccccc21,inactive,> 100,14.5,
C[n+]1c(/C=C/c2cnccn2)ccc2ccccc21,inactive,> 100,8.36,Active
CN(C)c1ccc(/C=C/c2sc3ccccc3[n+]2C)cc1,inactive,> 100,-2.67,inactive
C[n+]1c(/C=C/c2ccc(F)cc2)ccc2ccccc21,inactive,> 100,21.3,
C[n+]1c(/C=C/c2ccc(O)cc2)ccc2ccccc21,inactive,> 100,13.4,Active
C[n+]1c(/C=C/c2ccc(N3CCOCC3)cc2)sc2ccccc21,inactive,> 100,2.71,inactive
C[n+]1c(/C=C/c2ccc(F)cc2)sc2ccccc21,inactive,> 100,7.72,
CN(C)c1ccc(/C=C/c2ccc3ccccc3[n+]2C)cc1,inactive,> 100,,inactive
C[n+]1c(/C=C/c2ccccc2)sc2ccccc21,inactive,> 100,19.5,inactive
COc1ccc(/C=C/c2ccc3ccccc3[n+]2C)cc1,inactive,> 100,-9.62,inactive
C[n+]1c(/C=C/c2ccc(N3CCOCC3)cc2)ccc2ccccc21,inactive,> 100,1.18,inactive
COc1cc(/C=C/c2ccc3ccccc3[n+]2C)ccc1O,inactive,5.4,21,Active

SMILES,Activity (Pseudomonas aeruginosa),IC50 (c-di-GMP G-quadruplex [1]) [µM],inhibition (c-di-GMP G-quadruplex [2]) [%],Activity (Quadruplex DNA)
CN1CCN(c2ccc(/C=C/c3sc4ccccc4[n+]3C)cc2)CC1,inactive,> 100,,inactive
C[n+]1c(/C=C/c2ccc(N)cc2)ccc2ccccc21,inactive,> 100,2.11,Active
C[n+]1c(/C=C/c2cc(Br)c(O)c(Br)c2)sc2ccccc21,inactive,> 100,,inactive
C[n+]1c(/C=C/c2ccccc2)ccc2ccccc21,inactive,> 100,18.8,inactive
C[n+]1c(/C=C/c2ccncc2)ccc2ccccc21,inactive,> 100,13,inactive
C[n+]1c(/C=C/c2cc[nH]c2)sc2ccccc21,inactive,7.84,17.7,Active
CN1CCN(c2ccc(/C=C/c3ccc4ccccc4[n+]3C)cc2)CC1,inactive,> 100,-2.34,inactive
C[n+]1c(/C=C/c2ccc([N+](=O)[O-])cc2)sc2ccccc21,inactive,> 100,,
C[n+]1c(/C=C/c2cnccn2)sc2ccccc21,inactive,> 100,11.4,inactive
C[n+]1c(/C=C/c2ccc([N+](=O)[O-])cc2)ccc2ccccc21,inactive,> 100,,
C[n+]1c(/C=C/c2cc[nH]c2)ccc2ccccc21,inactive,9.61,22.2,Active
COc1ccc(/C=C/c2sc3ccccc3[n+]2C)cc1,inactive,> 100,-4.78,inactive
C[n+]1c(/C=C/c2ccc(O)c(O)c2)sc2ccccc21,inactive,11.5,21.7,Active
C[n+]1c(/C=C/c2ccc(Br)cc2)sc2ccccc21,inactive,> 100,-4.77,
C[n+]1c(/C=C/c2ccncc2)sc2ccccc21,inactive,> 100,,inactive
C[n+]1c(/C=C/c2ccc(O)cc2)sc2ccccc21,inactive,> 100,10.5,Active

# — ChEMBL document CHEMBL4808221, “Design and Synthesis of Novel c-di-GMP G-Quadruplex Inducers as Bacterial Biofilm Inhibitors” (J Med Chem, 2021)
